Results from US20010044437A1, “Methods for reducing uric acid levels” (priority 2000, published 2001).
“And” between values parts separate entries of the source, which are not always exact repeats. Identical values can stand only once.

Tests used:
serum uric acid [1] = assay: Serum uric acid during 28-day once-daily oral dosing, placebo-controlled study in 48 subjects (Example 34); assay type: in vivo, human
Procedure: In another study, 48 subjects were divided into four groups, A, B, C and D, and administered the noted amount of the compound of Example 3. Each group was composed of 12 subjects of whom 9 received the compound and 3 received placebo. The non-placebo members of group A received 50 mg of compound, administered orally once a day for 28 days as a single 50 mg tablet. The non-placebo members of group B received 200 mg of compound administered orally once a day for 28 days as a single 200 mg tablet. The non-placebo members of group C received 500 mg of compound administered orally once a day for 28 days as two 50 mg tablets and two 200 mg tablets. The non-placebo members of group D received 800 mg of compound administered orally once a day for 28 days as four 200 mg tablets. The 3 placebo members of each group, received an amount of placebo, as a tablet, equivalent to the amount of test compound—50 mg placebo for group A, 200 mg placebo for group B, 500 mg placebo for group C and 800 mg placebo for group D. Each subject received a single dose of either compound or placebo for 28 days. The subjects were confined at the clinical site beginning the day before dose administration until 72 hours after the final dose administration on Day 28 and returned for an outpatient visit on Day 35.
Uric acid levels were measured prior to beginning the study (screening), on the day immediately prior to commencement of the study (day-1), and then as noted in the table. Hours indicates the time since the last dose was administered. For example, Day 7, 0 hour indicates the time the serum uric acid level at the time the dose was administered and Day 7, 2 hour indicates the uric acid level two hours after the adminstration that day. Further, the Day 30, 60 hour level is the serum uric acid level measured 60 hours (on Day 30) after the last dose was administered on Day 28. The uric acid levels are presented in mg/dL as a mean of all subjects in each group.

serum uric acid [2] = assay: Serum uric acid after a single dose (tablet or suspension) in healthy human subjects (Example 33); assay type: in vivo; settings: individual subjects
Procedure: Thirty six healthy human subjects are administered either […] or a suspension containing the noted amount of the compound of Example 3 after fasting for at least 8 hours. subjects are administered 200 mg of compound; twelve subjects are administered 400 mg of compound; and twelve subjects are administered 600 mg of compound. Blood was collected before subjects are given the compound (Day −1) and the day following administration (Day 2). Serum uric levels may be measured using standard automated procedures on a uricase peroxidase method. Serum uric acid levels are […] in mg/dL.

O=C(O)Cn1cc(Cc2nc3c(F)c(F)cc(F)c3s2)c2ccccc21 [Example 3, 3-(4,5,7-Trifluorobenzothiazol-2-yl)methyl-indole-N-acetic Acid]
Uric Acid Level (mean of all subjects in each group) (serum uric acid [1]; group C 500 mg orally once a day, Day 1 16 Hour): 2.36 mg/dL
Uric Acid Level (mean of all subjects in each group) (serum uric acid [1]; group C 500 mg orally once a day, Day 1 24 Hour): 2.74 mg/dL
Uric Acid Level (mean of all subjects in each group) (serum uric acid [1]; group C 500 mg orally once a day, Day 3): 2.21 mg/dL
Uric Acid Level (mean of all subjects in each group) (serum uric acid [1]; group C 500 mg orally once a day, Day 7 0 Hour): 2.17 mg/dL
Uric Acid Level (mean of all subjects in each group) (serum uric acid [1]; group C 500 mg orally once a day, Day 7 0.5 Hour): 2.21 mg/dL
Uric Acid Level (mean of all subjects in each group) (serum uric acid [1]; group C 500 mg orally once a day, Day 7 1 Hour): 2.16 mg/dL
Uric Acid Level (mean of all subjects in each group) (serum uric acid [1]; group C 500 mg orally once a day, Day 7 2 Hour): 2.04 mg/dL
Uric Acid Level (mean of all subjects in each group) (serum uric acid [1]; group C 500 mg orally once a day, Day 7 3 Hour): 1.90 mg/dL
Uric Acid Level (mean of all subjects in each group) (serum uric acid [1]; group C 500 mg orally once a day, Day 7 4 Hour): 1.88 mg/dL
Uric Acid Level (mean of all subjects in each group) (serum uric acid [1]; group C 500 mg orally once a day, Day 7 6 Hour): 2.19 mg/dL
Uric Acid Level (mean of all subjects in each group) (serum uric acid [1]; group C 500 mg orally once a day, Day 7 8 Hour): 2.10 mg/dL
Uric Acid Level (mean of all subjects in each group) (serum uric acid [1]; group C 500 mg orally once a day, Day 7 10 Hour): 2.08 mg/dL
Uric Acid Level (mean of all subjects in each group) (serum uric acid [1]; group C 500 mg orally once a day, Day 7 12 Hour): 1.92 mg/dL
Uric Acid Level (mean of all subjects in each group) (serum uric acid [1]; group C 500 mg orally once a day, Day 7 16 Hour): 1.74 mg/dL
Uric Acid Level (mean of all subjects in each group) (serum uric acid [1]; group C 500 mg orally once a day, Day 7 24 Hour): 2.23 mg/dL
Uric Acid Level (mean of all subjects in each group) (serum uric acid [1]; group C 500 mg orally once a day, Day-1 (before dosing)): 5.10 mg/dL
Uric Acid Level (mean of all subjects in each group) (serum uric acid [1]; group C 500 mg orally once a day, Screening (before dosing)): 5.28 mg/dL
Uric Acid Level (mean of all subjects in each group) (serum uric acid [1]; group D 800 mg orally once a day, Day 1 0 Hour): 5.64 mg/dL
Uric Acid Level (mean of all subjects in each group) (serum uric acid [1]; group D 800 mg orally once a day, Day 1 0.5 Hour): 5.57 mg/dL
Uric Acid Level (mean of all subjects in each group) (serum uric acid [1]; group D 800 mg orally once a day, Day 1 1 Hour): 5.12 mg/dL
Uric Acid Level (mean of all subjects in each group) (serum uric acid [1]; group D 800 mg orally once a day, Day 1 2 Hour): 4.46 mg/dL
Uric Acid Level (mean of all subjects in each group) (serum uric acid [1]; group D 800 mg orally once a day, Day 1 3 Hour): 3.97 mg/dL
Uric Acid Level (mean of all subjects in each group) (serum uric acid [1]; group D 800 mg orally once a day, Day 1 4 Hour): 3.66 mg/dL
Uric Acid Level (mean of all subjects in each group) (serum uric acid [1]; group D 800 mg orally once a day, Day 1 6 Hour): 3.37 mg/dL
Uric Acid Level (mean of all subjects in each group) (serum uric acid [1]; group D 800 mg orally once a day, Day 1 8 Hour): 2.81 mg/dL
Uric Acid Level (mean of all subjects in each group) (serum uric acid [1]; group D 800 mg orally once a day, Day 1 10 Hour): 2.49 mg/dL
Uric Acid Level (mean of all subjects in each group) (serum uric acid [1]; group D 800 mg orally once a day, Day 1 12 Hour): 2.42 mg/dL
Uric Acid Level (mean of all subjects in each group) (serum uric acid [1]; group D 800 mg orally once a day, Day 1 16 Hour): 2.13 mg/dL
Uric Acid Level (mean of all subjects in each group) (serum uric acid [1]; group D 800 mg orally once a day, Day 1 24 Hour): 2.64 mg/dL
Uric Acid Level (mean of all subjects in each group) (serum uric acid [1]; group D 800 mg orally once a day, Day 3): 2.19 mg/dL
Uric Acid Level (mean of all subjects in each group) (serum uric acid [1]; group D 800 mg orally once a day, Day 7 0 Hour): 2.18 mg/dL
Uric Acid Level (mean of all subjects in each group) (serum uric acid [1]; group D 800 mg orally once a day, Day 7 0.5 Hour): 2.10 mg/dL
Uric Acid Level (mean of all subjects in each group) (serum uric acid [1]; group D 800 mg orally once a day, Day 7 1 Hour): 2.07 mg/dL
Uric Acid Level (mean of all subjects in each group) (serum uric acid [1]; group D 800 mg orally once a day, Day 7 2 Hour): 1.98 mg/dL
Uric Acid Level (mean of all subjects in each group) (serum uric acid [1]; group D 800 mg orally once a day, Day 7 3 Hour): 1.90 mg/dL
Uric Acid Level (mean of all subjects in each group) (serum uric acid [1]; group D 800 mg orally once a day, Day 7 4 Hour): 1.90 mg/dL
Uric Acid Level (mean of all subjects in each group) (serum uric acid [1]; group D 800 mg orally once a day, Day 7 6 Hour): 2.23 mg/dL
Uric Acid Level (mean of all subjects in each group) (serum uric acid [1]; group D 800 mg orally once a day, Day 7 8 Hour): 2.21 mg/dL
Uric Acid Level (mean of all subjects in each group) (serum uric acid [1]; group D 800 mg orally once a day, Day 7 10 Hour): 2.20 mg/dL
Uric Acid Level (mean of all subjects in each group) (serum uric acid [1]; group D 800 mg orally once a day, Day 7 12 Hour): 2.10 mg/dL
Uric Acid Level (mean of all subjects in each group) (serum uric acid [1]; group D 800 mg orally once a day, Day 7 16 Hour): 1.78 mg/dL
Uric Acid Level (mean of all subjects in each group) (serum uric acid [1]; group D 800 mg orally once a day, Day 7 24 Hour): 2.26 mg/dL
Uric Acid Level (mean of all subjects in each group) (serum uric acid [1]; group D 800 mg orally once a day, Day-1 (before dosing)): 5.54 mg/dL
Uric Acid Level (mean of all subjects in each group) (serum uric acid [1]; group D 800 mg orally once a day, Screening (before dosing)): 5.68 mg/dL
% Reduction (Suspension) (serum uric acid [2]; 200 mg suspension, Day 2 vs Day-1): 36% (3×) and 27% and 25% and −51% and 23% (2×) and 35% and 0% and 20% and 11%
Uric Acid Day-1 Suspension (serum uric acid [2]; 200 mg suspension, before administration (baseline)): 5.0 mg/dL (2×) and 6.0 mg/dL and 5.3 mg/dL (2×) and 4.3 mg/dL and 5.2 mg/dL and 5.5 mg/dL and 4.7 mg/dL and 3.3 mg/dL and 6.3 mg/dL and 4.5 mg/dL
Uric Acid Day 2 (Suspension) (serum uric acid [2]; 200 mg suspension, day following administration): 3.2 mg/dL and 4.4 mg/dL and 4.0 mg/dL (3×) and 6.5 mg/dL and 3.6 mg/dL (2×) and 5.3 mg/dL and 2.1 mg/dL and 5.6 mg/dL and 2.9 mg/dL
% reduction (Tablet) (serum uric acid [2]; 200 mg tablet, Day 2 vs Day-1): 28% and 27% and 26% and −3% and 16% (2×) and 39% (2×) and −2% and 32% and 41% and −16%
Uric Acid Day-1 Tablet (serum uric acid [2]; 200 mg tablet, before administration (baseline)): 5.0 mg/dL and 6.3 mg/dL and 5.3 mg/dL and 5.8 mg/dL and 4.9 mg/dL (3×) and 6.2 mg/dL and 5.2 mg/dL and 5.7 mg/dL and 3.7 mg/dL and 5.1 mg/dL
Uric Acid Day 2 (Tablet) (serum uric acid [2]; 200 mg tablet, day following administration): 3.6 mg/dL and 4.6 mg/dL and 3.9 mg/dL (2×) and 6.0 mg/dL and 4.1 mg/dL (2×) and 3.8 mg/dL and 5.3 mg/dL and 2.2 mg/dL and 5.7 mg/dL and 3.1 mg/dL
% reduction (serum uric acid [2]; 400 mg, Day 2 vs Day-1): 47% and 5% and 67% and 9% and 49% and 43% and 2% and 36% and 45% and 51% and −13% and 24%
Uric acid Day-1 (serum uric acid [2]; 400 mg, before administration (baseline)): 4.5 mg/dL and 4.3 mg/dL and 6.6 mg/dL and 5.3 mg/dL and 3.7 mg/dL and 5.6 mg/dL and 6.0 mg/dL and 4.7 mg/dL (2×) and 7.7 mg/dL and 6.2 mg/dL and 4.6 mg/dL
Uric acid Day 2 (serum uric acid [2]; 400 mg, day following administration): 2.4 mg/dL and 4.1 mg/dL and 2.2 mg/dL and 4.8 mg/dL and 1.9 mg/dL and 3.2 mg/dL and 5.9 mg/dL and 3.0 mg/dL and 4.2 mg/dL and 2.3 mg/dL and 7.0 mg/dL and 3.5 mg/dL
% reduction (serum uric acid [2]; 600 mg, Day 2 vs Day-1): −6% and −44% and 45% and 55% and 42% and 2% and 57% and 47% and 37% and 58% and 50%
Uric acid Day-1 (serum uric acid [2]; 600 mg, before administration (baseline)): 4.7 mg/dL and 4.3 mg/dL and 5.5 mg/dL and 4.4 mg/dL (2×) and 5.9 mg/dL and 4.6 mg/dL and 3.5 mg/dL and 3.4 mg/dL and 3.0 mg/dL and 3.9 mg/dL
Uric acid Day 2 (serum uric acid [2]; 600 mg, day following administration): 5.0 mg/dL and 33 mg/dL and 6.2 mg/dL and 3.0 mg/dL and 2.0 mg/dL and 3.4 mg/dL and 4.5 mg/dL and 1.5 mg/dL and 1.8 mg/dL and 1.9 mg/dL and 1.7 mg/dL and 2.2 mg/dL
